# Experimental data as given in article PMC8318001, “Terpene Synthase-b and Terpene Synthase-e/f Genes Produce Monoterpenes for Phalaenopsis bellina Floral Scent” (Frontiers in Plant Science, 2021).
# Experiments:
# Test in all cases: GC-MS of reaction products
# Assay type in all cases: biochemical
# Details in all cases: 2.5 uM GDP, HEPES pH 7.4, 0.1 M KCl, 10 mM MgCl2, 10 mM DTT, 10% glycerol, 30 °C, 1 h
# PbTPS5 = target: T1, PbTPS5 (Phalaenopsis bellina, UniProt A0A8F9UAD9)
# T1 construct: gene TPS5; tag removal not mentioned
# T1 sequence (A0A8F9UAD9 1-605 limits assumed): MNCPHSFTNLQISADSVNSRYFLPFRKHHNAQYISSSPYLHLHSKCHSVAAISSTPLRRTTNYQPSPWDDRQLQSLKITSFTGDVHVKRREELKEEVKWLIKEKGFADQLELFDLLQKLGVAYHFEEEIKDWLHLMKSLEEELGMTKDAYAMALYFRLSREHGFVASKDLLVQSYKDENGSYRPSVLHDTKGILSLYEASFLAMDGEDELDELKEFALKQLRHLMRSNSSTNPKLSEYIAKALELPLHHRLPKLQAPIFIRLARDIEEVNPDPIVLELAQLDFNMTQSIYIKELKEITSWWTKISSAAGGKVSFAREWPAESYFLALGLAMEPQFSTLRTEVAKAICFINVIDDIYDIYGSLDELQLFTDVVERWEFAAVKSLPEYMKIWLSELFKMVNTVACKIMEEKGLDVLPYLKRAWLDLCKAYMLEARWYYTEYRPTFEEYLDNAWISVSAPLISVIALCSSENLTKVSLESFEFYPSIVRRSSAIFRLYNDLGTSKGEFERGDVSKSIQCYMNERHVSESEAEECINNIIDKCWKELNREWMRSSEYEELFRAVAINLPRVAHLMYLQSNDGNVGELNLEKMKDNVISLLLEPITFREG
# PbTPS3 = target: T2, PbTPS3 (Phalaenopsis bellina, UniProt A0A8F9U8Q4)
# T2 construct: gene TPS3; ORF in pET-28b, His-tag at N- and C-termini, E. coli C41 (DE3) pLysS, TALON purified; tag removal not mentioned
# T2 sequence (A0A8F9U8Q4 1-769): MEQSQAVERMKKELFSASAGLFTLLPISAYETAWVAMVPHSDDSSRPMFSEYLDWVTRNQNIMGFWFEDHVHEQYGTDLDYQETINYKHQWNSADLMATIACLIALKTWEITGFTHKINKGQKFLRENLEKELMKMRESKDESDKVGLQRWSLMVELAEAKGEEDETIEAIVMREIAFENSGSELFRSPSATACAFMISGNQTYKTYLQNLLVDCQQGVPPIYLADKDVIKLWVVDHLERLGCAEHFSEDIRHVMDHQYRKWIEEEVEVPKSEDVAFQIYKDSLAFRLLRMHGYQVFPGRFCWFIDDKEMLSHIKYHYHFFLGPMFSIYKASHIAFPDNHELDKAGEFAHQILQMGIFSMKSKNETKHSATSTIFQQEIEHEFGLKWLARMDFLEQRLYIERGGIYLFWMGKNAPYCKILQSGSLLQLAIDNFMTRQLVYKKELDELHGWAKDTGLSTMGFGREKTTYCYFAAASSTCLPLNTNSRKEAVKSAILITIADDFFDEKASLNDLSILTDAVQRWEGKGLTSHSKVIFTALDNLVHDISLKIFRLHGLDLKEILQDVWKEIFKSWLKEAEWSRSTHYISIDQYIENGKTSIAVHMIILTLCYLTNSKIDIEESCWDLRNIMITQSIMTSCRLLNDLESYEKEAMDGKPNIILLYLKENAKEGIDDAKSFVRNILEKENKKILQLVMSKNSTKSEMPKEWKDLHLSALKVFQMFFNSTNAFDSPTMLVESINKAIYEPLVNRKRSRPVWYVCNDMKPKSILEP
# PbTPS9 = target: T3, PbTPS9 (Phalaenopsis bellina, UniProt A0A8F9U9F3)
# T3 construct: gene TPS9; ORF in pET-28b, His-tag at N- and C-termini, E. coli C41 (DE3) pLysS, TALON purified; tag removal not mentioned
# T3 sequence (A0A8F9U9F3 1-598 limits assumed): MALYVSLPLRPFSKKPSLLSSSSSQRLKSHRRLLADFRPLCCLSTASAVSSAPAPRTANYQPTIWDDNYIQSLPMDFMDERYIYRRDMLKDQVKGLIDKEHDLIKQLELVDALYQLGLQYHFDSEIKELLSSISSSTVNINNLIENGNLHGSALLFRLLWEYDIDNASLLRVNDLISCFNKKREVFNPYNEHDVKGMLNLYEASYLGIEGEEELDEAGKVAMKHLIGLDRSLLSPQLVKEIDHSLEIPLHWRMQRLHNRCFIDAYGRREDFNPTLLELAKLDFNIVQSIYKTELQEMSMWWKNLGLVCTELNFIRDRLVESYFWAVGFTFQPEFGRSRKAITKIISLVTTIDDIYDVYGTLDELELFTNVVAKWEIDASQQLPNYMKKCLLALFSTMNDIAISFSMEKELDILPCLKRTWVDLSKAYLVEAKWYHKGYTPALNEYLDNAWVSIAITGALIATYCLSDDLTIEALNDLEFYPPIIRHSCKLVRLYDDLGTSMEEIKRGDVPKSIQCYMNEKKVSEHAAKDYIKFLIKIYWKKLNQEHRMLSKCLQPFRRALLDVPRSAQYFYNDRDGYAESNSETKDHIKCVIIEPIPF
# PbTPS4 = target: T4, PbTPS4 (Phalaenopsis bellina, UniProt A0A8F9U8Q1)
# T4 construct: gene TPS4; ORF in pET-28b, His-tag at N- and C-termini, E. coli C41 (DE3) pLysS, TALON purified; tag removal not mentioned
# T4 sequence (A0A8F9U8Q1 1-868): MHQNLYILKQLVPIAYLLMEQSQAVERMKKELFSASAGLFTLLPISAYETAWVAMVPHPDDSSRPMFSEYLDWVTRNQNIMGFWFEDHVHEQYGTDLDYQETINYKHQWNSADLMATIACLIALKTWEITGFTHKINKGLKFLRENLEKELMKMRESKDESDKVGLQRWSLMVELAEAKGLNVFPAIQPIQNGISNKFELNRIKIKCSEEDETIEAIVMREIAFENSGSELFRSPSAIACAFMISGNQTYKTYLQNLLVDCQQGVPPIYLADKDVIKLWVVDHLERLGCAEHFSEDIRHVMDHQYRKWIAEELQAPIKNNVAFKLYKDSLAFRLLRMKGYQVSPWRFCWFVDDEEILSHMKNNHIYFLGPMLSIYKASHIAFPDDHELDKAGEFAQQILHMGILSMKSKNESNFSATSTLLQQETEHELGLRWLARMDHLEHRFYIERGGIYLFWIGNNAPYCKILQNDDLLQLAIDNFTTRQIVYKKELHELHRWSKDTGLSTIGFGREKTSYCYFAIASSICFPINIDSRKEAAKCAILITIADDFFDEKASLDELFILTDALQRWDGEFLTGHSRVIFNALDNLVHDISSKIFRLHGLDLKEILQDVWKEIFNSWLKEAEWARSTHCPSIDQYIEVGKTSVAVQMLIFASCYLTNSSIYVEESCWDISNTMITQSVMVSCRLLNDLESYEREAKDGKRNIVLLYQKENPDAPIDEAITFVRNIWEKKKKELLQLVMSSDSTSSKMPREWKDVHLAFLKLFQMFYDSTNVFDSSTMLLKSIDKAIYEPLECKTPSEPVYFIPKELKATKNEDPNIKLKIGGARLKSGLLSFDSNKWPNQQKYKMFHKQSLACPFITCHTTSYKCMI
compound,measurement,setting,value
CC(C)=CCC/C(C)=C/COP(=O)(O)OP(=O)(O)O [GDP],GC-MS of reaction products,PbTPS5,Geraniol was detected as the main product catalyzed by PbTPS5 (Figure 5A)
same,GC-MS of reaction products,PbTPS3,PbTPS3 was a dual enzyme as a linalool/(β)-cis-ocimene synthase (Figure 6A)
same,GC-MS of reaction products,PbTPS9,The product of PbTPS9 was geraniol (Figure 5B)
same,GC-MS of reaction products,PbTPS4,PbTPS4 was a linalool synthase and used GDP as the substrate (Figure 6B)
